Columns and labels:
in vitro [1] = conditions: human, blood
in vitro [2] = conditions: human, liver
Description: Half life in human liver at 37 degree C

## COc1cc(C(C)C)c2c(c1)S(=O)(=O)N(COC(=O)c1c(Cl)cccc1Cl)C2=O
In vitro [1]
  half-life: 2.33 h
In vitro [2]
  half-life: 1.22 h

## COc1cc(C(C)C)c2c(c1)S(=O)(=O)N(COC1=C(Cc3ccccc3)C(=O)OC1C)C2=O (configuration not stated)
In vitro [1]
  half-life: 2.82 h
In vitro [2]
  half-life: 0.583 h

## COc1cc(C(C)C)c2c(c1)S(=O)(=O)N(COC1=CC(=O)c3ccccc31)C2=O
In vitro [1]
  half-life: < 0.25 h

## COc1cc(C(C)C)c2c(c1)S(=O)(=O)N(COC1=C(c3ccccc3)C(=O)OC1)C2=O
In vitro [1]
  half-life: 0.483 h

## COc1cc(C(C)C)c2c(c1)S(=O)(=O)N(COC1=C(Cc3ccccc3)C(=O)OC1)C2=O
In vitro [1]
  half-life: 0.967 h
In vitro [2]
  half-life: 1.25 h

## COc1cc(C(C)C)c2c(c1)S(=O)(=O)N(COC1=C(C)C(=O)CC1)C2=O
In vitro [1]
  half-life: < 0.25 h

## COc1cc(C(C)C)c2c(c1)S(=O)(=O)N(COC1=C(c3ccccc3)C(=O)OC1C)C2=O (configuration not stated)
In vitro [1]
  half-life: 2.57 h
In vitro [2]
  half-life: 1.37 h

## COc1cc(C(C)C)c2c(c1)S(=O)(=O)N(COc1cc(=O)oc3ccccc13)C2=O
In vitro [1]
  half-life: 6 h

## COc1cc(C(C)C)c2c(c1)S(=O)(=O)N(COc1nc3ccccn3c(=O)c1Br)C2=O
In vitro [1]
  half-life: 2.07 h

## COc1cc(C(C)C)c2c(c1)S(=O)(=O)N(COC1=CC(=O)C1)C2=O
In vitro [1]
  half-life: < 0.25 h

## COc1cc(C(C)C)c2c(c1)S(=O)(=O)N(COc1cc(C)oc(=O)c1)C2=O
In vitro [1]
  half-life: < 0.25 h

## COc1cc(C(C)C)c2c(c1)S(=O)(=O)N(COc1cc(=O)n3c(n1)CCCC3)C2=O
In vitro [1]
  half-life: 0.85 h

## COc1cc(C(C)C)c2c(c1)S(=O)(=O)N(COC1=CC(=O)OC1C)C2=O (configuration not stated)
In vitro [1]
  half-life: < 0.25 h

## COc1cc(C(C)C)c2c(c1)S(=O)(=O)N(COC1=C(Cl)C(=O)OC1)C2=O
In vitro [1]
  half-life: < 0.25 h

## CCC(C)c1cccc2c1C(=O)N(COc1nc3ccccn3c(=O)c1Cl)S2(=O)=O (configuration not stated)
In vitro [1]
  half-life: 3.83 h

## COc1cc(C(C)C)c2c(c1)S(=O)(=O)N(COC1=CC(=O)N(Cc3ccccc3)C1)C2=O
In vitro [1]
  half-life: 0.233 h

## COc1cc(C(C)C)c2c(c1)S(=O)(=O)N(COC1=CC(=O)OC1)C2=O
In vitro [1]
  half-life: < 0.25 h

## COc1cc(C(C)C)c2c(c1)S(=O)(=O)N(COc1nc3ccccn3c(=O)c1Cl)C2=O
In vitro [1]
  half-life: 2.67 h

## COc1cc(C(C)C)c2c(c1)S(=O)(=O)N(COc1cc(C)oc(=O)c1Cl)C2=O
In vitro [1]
  half-life: < 0.25 h

## COc1cc(C(C)C)c2c(c1)S(=O)(=O)N(COc1cc(C)oc(=O)c1C(=O)c1ccccc1)C2=O
In vitro [1]
  half-life: < 0.25 h

## CC(C)c1cccc2c1C(=O)N(COc1nc3ccccn3c(=O)c1Cl)S2(=O)=O
In vitro [1]
  half-life: 0.833 h

## COc1cc(C(C)C)c2c(c1)S(=O)(=O)N(COc1nc3ccccn3c(=O)c1C)C2=O
In vitro [1]
  half-life: 5.83 h
In vitro [2]
  half-life: 1.72 h

## COc1cc(C(C)C)c2c(c1)S(=O)(=O)N(COC1=C(Cc3ccccc3)C(=O)CC1)C2=O
In vitro [1]
  half-life: 0.917 h

## COc1cc(C(C)C)c2c(c1)S(=O)(=O)N(COC1=C(C)C(=O)CCC1)C2=O
In vitro [1]
  half-life: 0.267 h

## O=C1c2ccccc2S(=O)(=O)N1COc1nc2ccccn2c(=O)c1Cl
In vitro [1]
  half-life: < 0.25 h

## COc1cc(C(C)C)c2c(c1)S(=O)(=O)N(COc1cc(=O)n3ccccc3n1)C2=O
In vitro [1]
  half-life: 1.78 h
In vitro [2]
  half-life: 1.7 h
